According to patent US7435724B2, “Degradation-resistant mononucleoside phosphate compounds” (Inspire Pharmaceutical, Inc., priority 2002, dated 2008):

Tested on: whole blood platelet aggregation
Assay: Platelet aggregation assay, whole blood (ADP-induced, impedance mode)
Type: cell-based, human (healthy volunteers)
Details: Homo sapiens, read-out: PLATELET DATA IC50 Whole Blood, inhibition of aggregation by maximally effective ADP, whole blood diluted 1:1 with saline
Protocol: Blood was collected from healthy volunteers into syringes containing ⅙final blood volume of anti-coagulant ACD (65 mM citric acid, 85 mM sodium citrate, 110 mM dextrose) for washed platelet (WP) preparation or into a syringe containing a final concentration of 10 units/mL heparin or 300 μM PPACK for whole blood (WB) assays. The blood collected for whole blood assays was maintained at room temperature and immediately tested as described below. The blood collected for WP) was centrifuged at 180 g for 15 minutes and the supernatant (platelet rich plasma) was removed. […] Platelet aggregation was measured using the optical mode of a ChronoLog aggregometer (Havertown, Pa.). […] A maximally effective concentration of ADP (typically a concentration that produces between 90 and 100 percent of the maximal response) was added to the sample and aggregation was monitored for 8 minutes. […]
The potency of agonists and inhibitors of platelet aggregation was calculated from both, the rate of aggregation and the maximal extent of aggregation obtained for each determination by fitting the data to a four-parameter logistic equation using the GraphPad software package (GraphPad Corp. San Diego, Calif.).

CCNC(=O)Nc1ncnc2c1ncn2[C@@H]1O[C@H](COP(=O)(O)OC)C2O[C@H](/C=C/c3ccccc3)O[C@@H]21 (stereo partly drawn) [Compound 217, 2′,3′-(trans)-O-methylenestyryl-5′-(methylphosphate)-N^6-ethylaminocarbonyl-adenosine]
IC50: 2500 nM
